Measurements reported in patent US12479847B2 (DANA-FARBER CANCER INSTITUTE, INC., priority 2019, dated 2025).

How the values were obtained:
Assay in all cases: KINOMEscan (ScanMAX) kinase profiling
Format in all cases: binding
panel of 468 kinases [1] = target: T1, panel of 468 kinases (Homo sapiens, UniProt O96013); details: PAK4; 1 μM; read-out: % control
T1 construct: purchased KINOMEscan (ScanMAX) service

panel of 468 kinases [2] = target: T2, panel of 468 kinases (Homo sapiens, UniProt P08581, Y1235D); details: MET(Y1235D); 1 μM; read-out: % control
T2 construct: purchased KINOMEscan (ScanMAX) service
T2 sequence (P08581 25-1390 Y1235D): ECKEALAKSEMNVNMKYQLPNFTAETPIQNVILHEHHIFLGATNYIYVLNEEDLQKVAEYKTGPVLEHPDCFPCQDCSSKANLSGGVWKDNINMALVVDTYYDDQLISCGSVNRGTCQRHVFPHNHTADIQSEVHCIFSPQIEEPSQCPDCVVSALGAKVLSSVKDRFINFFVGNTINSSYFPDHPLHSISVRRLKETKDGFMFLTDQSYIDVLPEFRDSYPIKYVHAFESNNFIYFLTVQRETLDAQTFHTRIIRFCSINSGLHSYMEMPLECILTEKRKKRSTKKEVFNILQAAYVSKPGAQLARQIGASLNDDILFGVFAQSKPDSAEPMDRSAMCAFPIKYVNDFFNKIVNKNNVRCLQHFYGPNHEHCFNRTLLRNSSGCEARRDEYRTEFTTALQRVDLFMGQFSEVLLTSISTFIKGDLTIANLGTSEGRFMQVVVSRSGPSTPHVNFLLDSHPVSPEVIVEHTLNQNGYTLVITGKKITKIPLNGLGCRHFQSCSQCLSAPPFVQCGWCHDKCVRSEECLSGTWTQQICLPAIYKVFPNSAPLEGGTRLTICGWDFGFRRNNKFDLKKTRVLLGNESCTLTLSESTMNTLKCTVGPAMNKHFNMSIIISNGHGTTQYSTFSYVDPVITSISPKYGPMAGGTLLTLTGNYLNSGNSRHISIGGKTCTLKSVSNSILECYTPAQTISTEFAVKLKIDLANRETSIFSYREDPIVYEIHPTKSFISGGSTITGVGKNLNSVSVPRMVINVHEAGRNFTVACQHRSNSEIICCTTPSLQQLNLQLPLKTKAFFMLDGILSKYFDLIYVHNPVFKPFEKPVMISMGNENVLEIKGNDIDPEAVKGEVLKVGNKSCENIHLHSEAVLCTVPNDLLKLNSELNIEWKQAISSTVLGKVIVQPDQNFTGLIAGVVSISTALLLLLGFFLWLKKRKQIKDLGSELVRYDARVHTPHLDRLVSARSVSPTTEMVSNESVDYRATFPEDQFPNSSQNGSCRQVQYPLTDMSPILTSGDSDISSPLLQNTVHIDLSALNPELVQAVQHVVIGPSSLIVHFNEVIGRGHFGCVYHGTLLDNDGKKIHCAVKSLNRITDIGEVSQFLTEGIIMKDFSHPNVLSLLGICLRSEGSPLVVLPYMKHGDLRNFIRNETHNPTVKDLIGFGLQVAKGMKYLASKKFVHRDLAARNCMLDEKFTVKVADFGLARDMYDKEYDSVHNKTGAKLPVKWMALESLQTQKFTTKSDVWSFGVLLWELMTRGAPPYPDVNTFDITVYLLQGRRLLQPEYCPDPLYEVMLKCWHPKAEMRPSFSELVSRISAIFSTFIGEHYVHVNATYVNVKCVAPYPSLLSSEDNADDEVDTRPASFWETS

panel of 468 kinases [3] = target: T3, panel of 468 kinases (Homo sapiens, UniProt P57078); details: RIPK4; 1 μM; read-out: % control
T3 construct: purchased KINOMEscan (ScanMAX) service
T3 sequence (P57078 1-832): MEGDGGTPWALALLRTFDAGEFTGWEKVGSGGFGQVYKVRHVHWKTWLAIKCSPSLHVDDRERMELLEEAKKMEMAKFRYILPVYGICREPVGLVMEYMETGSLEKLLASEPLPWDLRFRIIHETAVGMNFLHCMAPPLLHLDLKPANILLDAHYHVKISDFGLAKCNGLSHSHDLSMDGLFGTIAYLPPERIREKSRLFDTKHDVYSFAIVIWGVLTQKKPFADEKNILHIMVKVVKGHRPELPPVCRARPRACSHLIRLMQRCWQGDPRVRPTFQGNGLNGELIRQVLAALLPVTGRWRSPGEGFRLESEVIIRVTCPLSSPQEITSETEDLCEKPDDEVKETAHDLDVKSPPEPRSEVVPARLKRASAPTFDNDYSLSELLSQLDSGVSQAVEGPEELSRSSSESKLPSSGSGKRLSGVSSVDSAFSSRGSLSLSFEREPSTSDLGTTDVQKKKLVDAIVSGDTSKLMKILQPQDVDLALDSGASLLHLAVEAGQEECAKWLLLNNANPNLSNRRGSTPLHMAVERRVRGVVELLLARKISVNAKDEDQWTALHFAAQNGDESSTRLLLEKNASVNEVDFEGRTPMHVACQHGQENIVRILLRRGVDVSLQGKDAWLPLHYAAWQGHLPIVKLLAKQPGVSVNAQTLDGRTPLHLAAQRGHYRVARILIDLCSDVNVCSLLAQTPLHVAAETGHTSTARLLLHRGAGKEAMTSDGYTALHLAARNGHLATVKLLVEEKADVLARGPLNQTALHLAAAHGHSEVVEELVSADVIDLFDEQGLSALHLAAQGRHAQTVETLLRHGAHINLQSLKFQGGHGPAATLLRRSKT

panel of 468 kinases [4] = target: T4, panel of 468 kinases (Homo sapiens, UniProt Q05397); details: FAK; 1 μM; read-out: % control
T4 construct: purchased KINOMEscan (ScanMAX) service
T4 sequence (Q05397 whole entry): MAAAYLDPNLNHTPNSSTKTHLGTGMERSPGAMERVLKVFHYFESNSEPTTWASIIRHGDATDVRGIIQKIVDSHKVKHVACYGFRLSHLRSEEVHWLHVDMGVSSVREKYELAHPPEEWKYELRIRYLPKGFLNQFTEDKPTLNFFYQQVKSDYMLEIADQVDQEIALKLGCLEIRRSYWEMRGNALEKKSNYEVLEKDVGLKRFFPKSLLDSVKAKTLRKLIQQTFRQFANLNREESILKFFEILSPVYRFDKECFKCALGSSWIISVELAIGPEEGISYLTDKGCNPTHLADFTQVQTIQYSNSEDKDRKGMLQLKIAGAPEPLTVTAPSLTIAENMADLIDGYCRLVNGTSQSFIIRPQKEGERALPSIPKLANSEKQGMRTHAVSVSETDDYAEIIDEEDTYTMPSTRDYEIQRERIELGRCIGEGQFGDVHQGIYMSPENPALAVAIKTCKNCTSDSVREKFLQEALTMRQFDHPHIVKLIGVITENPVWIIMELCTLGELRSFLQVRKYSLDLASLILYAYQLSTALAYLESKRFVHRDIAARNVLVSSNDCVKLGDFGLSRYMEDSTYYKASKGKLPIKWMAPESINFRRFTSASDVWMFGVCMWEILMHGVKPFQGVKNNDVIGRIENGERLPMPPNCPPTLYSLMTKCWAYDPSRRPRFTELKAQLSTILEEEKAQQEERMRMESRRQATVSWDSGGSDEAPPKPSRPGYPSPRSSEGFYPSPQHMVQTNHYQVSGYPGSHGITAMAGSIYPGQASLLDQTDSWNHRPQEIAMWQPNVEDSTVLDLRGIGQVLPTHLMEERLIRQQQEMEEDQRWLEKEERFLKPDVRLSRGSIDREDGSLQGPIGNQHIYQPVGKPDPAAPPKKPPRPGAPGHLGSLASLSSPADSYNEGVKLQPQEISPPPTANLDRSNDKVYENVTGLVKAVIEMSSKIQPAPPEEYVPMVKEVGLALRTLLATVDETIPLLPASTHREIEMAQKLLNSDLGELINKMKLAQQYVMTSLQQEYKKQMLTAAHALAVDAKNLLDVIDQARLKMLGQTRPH

panel of 468 kinases [5] = target: T5, panel of 468 kinases (Homo sapiens, UniProt Q6P3R8); details: NEK5; 1 μM; read-out: % control
T5 construct: purchased KINOMEscan (ScanMAX) service
T5 sequence (Q6P3R8 1-708): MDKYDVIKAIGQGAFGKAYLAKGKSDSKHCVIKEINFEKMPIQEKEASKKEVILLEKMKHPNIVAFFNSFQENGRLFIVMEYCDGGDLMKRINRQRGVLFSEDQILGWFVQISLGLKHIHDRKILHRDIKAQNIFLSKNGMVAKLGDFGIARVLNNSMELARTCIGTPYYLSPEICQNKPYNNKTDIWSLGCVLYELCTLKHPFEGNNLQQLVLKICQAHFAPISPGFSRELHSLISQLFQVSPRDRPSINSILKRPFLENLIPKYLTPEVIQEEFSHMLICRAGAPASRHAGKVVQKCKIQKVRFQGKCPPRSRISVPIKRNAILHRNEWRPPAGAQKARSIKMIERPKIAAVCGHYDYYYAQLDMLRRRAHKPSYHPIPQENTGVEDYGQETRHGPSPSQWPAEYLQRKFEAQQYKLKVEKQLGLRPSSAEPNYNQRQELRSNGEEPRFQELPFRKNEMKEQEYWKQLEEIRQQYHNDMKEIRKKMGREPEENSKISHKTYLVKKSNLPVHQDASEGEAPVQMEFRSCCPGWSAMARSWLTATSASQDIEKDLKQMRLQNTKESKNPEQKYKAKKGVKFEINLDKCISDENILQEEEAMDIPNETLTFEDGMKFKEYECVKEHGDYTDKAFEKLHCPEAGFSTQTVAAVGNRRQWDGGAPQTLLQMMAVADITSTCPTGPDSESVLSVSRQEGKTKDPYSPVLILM

panel of 468 kinases [6] = target: T6, panel of 468 kinases (Homo sapiens, UniProt Q8TDC3); details: BRSK1; 1 μM; read-out: % control
T6 construct: purchased KINOMEscan (ScanMAX) service
T6 sequence (Q8TDC3 1-778): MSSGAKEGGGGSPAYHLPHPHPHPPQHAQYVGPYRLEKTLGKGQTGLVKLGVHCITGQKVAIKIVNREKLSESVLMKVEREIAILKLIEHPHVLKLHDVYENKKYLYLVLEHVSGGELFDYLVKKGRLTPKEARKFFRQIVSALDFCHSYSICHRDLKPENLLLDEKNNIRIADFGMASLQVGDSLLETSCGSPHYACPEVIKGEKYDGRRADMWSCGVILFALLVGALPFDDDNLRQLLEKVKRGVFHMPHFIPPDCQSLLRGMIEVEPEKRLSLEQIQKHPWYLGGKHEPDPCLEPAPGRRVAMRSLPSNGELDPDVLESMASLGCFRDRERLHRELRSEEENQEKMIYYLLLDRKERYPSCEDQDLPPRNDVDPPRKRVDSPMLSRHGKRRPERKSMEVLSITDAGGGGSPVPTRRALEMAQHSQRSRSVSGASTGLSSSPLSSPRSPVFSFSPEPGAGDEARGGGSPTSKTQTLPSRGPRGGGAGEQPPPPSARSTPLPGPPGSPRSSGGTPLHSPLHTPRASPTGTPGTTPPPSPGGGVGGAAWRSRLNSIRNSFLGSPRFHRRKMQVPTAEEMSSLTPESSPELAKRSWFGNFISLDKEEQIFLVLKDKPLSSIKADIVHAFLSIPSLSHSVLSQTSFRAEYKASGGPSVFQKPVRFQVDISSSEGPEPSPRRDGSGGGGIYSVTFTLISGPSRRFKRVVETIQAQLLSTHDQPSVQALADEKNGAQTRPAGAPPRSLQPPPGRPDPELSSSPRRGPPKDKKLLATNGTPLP

panel of 468 kinases [7] = target: T7, panel of 468 kinases (Homo sapiens, UniProt Q9HAZ1); details: CLK4; 1 μM; read-out: % control
T7 construct: purchased KINOMEscan (ScanMAX) service
T7 sequence (Q9HAZ1 whole entry): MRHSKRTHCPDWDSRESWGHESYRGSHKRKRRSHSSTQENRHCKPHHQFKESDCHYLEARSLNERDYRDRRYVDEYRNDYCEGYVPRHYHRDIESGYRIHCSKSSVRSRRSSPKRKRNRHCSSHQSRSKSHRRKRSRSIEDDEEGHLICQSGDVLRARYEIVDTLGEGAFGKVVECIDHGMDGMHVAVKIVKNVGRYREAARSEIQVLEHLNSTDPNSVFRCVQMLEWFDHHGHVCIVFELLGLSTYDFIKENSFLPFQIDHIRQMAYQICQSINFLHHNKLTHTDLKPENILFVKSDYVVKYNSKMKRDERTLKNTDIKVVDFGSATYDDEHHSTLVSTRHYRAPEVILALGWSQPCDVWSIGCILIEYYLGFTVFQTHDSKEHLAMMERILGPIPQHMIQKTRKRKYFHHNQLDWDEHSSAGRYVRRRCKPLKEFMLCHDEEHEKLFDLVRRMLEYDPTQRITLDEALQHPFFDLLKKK

T1 sequence (O96013 whole entry): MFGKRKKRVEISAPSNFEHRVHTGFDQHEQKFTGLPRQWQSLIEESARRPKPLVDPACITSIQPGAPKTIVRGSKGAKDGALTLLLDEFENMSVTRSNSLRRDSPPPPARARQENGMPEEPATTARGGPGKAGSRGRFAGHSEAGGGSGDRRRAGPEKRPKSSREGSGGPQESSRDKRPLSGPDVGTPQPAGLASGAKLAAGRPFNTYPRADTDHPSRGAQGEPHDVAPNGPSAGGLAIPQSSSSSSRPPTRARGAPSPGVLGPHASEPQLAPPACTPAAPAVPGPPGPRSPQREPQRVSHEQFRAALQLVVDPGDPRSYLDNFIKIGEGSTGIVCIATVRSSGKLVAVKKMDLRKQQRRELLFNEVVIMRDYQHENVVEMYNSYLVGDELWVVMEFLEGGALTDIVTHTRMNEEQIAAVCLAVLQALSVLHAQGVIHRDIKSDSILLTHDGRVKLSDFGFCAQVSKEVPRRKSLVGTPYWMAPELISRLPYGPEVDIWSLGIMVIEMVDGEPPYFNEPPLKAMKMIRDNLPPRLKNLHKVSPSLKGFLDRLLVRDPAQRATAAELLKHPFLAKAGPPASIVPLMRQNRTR

SMILES | remaining binding at 1 µM (panel of 468 kinases [1]) [%] | remaining binding at 1 µM (panel of 468 kinases [2]) [%] | remaining binding at 1 µM (panel of 468 kinases [3]) [%] | remaining binding at 1 µM (panel of 468 kinases [4]) [%] | remaining binding at 1 µM (panel of 468 kinases [5]) [%] | remaining binding at 1 µM (panel of 468 kinases [6]) [%] | remaining binding at 1 µM (panel of 468 kinases [7]) [%]
CNc1nc(Nc2ccc(S(=O)(=O)N3CCC(N4CCOCC4)CC3)cc2OC)nc2[nH]cc(Cl)c12 [Compound 12, 5-chloro-N2-(2-methoxy-4-((4-morpholinopiperidin-1-yl)sulfonyl)phenyl)-N4-methyl-7H-pyrrolo[2,3-d]pyrimidine-2,4-diamine] | 100 | 100 | 76 | 19 | 100 | 100 | 0.75
CNc1nc(Nc2ccc(P3(=O)CCN(C4CCOCC4)CC3)cc2OC)nc2[nH]cc(Cl)c12 [Compound 77, 4-(4-((5-chloro-4-(methylamino)-7H-pyrrolo[2,3-d]pyrimidin-2-yl)amino)-3-methoxyphenyl)-1-(tetrahydro-2H-pyran-4-yl)-1,4-azaphosphinane 4-oxide] | 100 | 100 | 98 | 33 | 98 | 96 | 1.2
CNc1nc(Nc2ccc(C(=O)N3CCC(N4CCOCC4)CC3)c3c2OCO3)nc2[nH]cc(Cl)c12 [Compound 75, (7-((5-chloro-4-(methylamino)-7H-pyrrolo[2,3-d]pyrimidin-2-yl)amino)benzo[d][1,3]dioxol-4-yl)(4-morpholinopiperidin-1-yl)methanone] | 100 | 100 | 89 | 39 | 97 | 100 | 0.7
